The target of this assay is T1, Serine protease 1 (Bos taurus, UniProt P00760).
T1 sequence (P00760 whole entry): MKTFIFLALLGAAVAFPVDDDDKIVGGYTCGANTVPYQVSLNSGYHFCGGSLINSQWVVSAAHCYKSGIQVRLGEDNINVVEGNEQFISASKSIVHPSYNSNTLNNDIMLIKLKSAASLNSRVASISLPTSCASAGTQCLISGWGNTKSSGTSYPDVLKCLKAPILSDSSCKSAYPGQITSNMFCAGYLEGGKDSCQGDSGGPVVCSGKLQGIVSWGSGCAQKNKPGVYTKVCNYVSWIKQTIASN
The assay is described as follows: Serine Protease Inhibition Assay. The procedure:
The enzyme reactions were initiated by the addition of substrate, and the color developed from the release of p-nitroanilide from each chromogenic substrate was monitored continuously for 5 min at 405 nm on a microtiter plate reader. […] The apparent Ki values were then calculated according to the Cheng-Prusoff equation: Ki = IC50/1 + [S]/Km.

A value given as a limit tells only on which side of the number the result lay.

`CCOc1cc(-c2ccccc2)cc(C(Nc2ccc(C(=N)N)cc2)C(=O)O)c1` (stereo unspecified) [2-[(4-carbamimidoylphenyl)amino]-2-(3-ethoxy-5-phenylphenyl)acetic acid]: the inhibition constant Ki is more than 68 µM.

The values above are taken from BindingDB's records for doi:10.1016/j.bmcl.2005.04.079 (F. Hoffmann-La Roche, 2005).
